Target: c-Met kinase (h-Met; histidine-tagged c-Met catalytic domain fusion protein) (Homo sapiens (Human), UniProt P08581)
Test: In Vitro c-Met Kinase Enzyme Assays
Type: biochemical
Settings: phosphorylation of poly Glu-Tyr, 5 μM ATP, 25 minutes at 30° C.
How it was run: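 His-tagged c-Met catalytic domain reacted 25 min at 30° C, within the linear initial-rate range. Phosphotyrosine detected by ELISA with peroxidase-labeled anti-phospho-tyrosine antibody and TMB, OD read at 450 nm (540 nm correction); IC50 from curve fit.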

Chain of c-Met kinase (h-Met; histidine-tagged c-Met catalytic domain fusion protein) (P08581 1078-1345): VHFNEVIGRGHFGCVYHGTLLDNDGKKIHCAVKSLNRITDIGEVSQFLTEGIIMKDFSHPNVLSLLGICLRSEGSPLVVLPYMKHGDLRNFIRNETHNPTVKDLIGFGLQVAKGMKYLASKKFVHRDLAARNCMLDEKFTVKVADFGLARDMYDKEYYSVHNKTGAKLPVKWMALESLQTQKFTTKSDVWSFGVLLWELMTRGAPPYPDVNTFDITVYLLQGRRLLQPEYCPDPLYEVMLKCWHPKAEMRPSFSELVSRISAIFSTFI

IC50, < 500 nM:
CC(C)(C)[C@@H](CO)NC(=O)c1ccc(-c2cnc3ncc(Cc4ccc5ncccc5c4)n3n2)cc1F [Example 157, 2-Fluoro-N-[(1S)-1-(hydroxymethyl)-2,2-dimethylpropyl]-4-[7-(quinolin-6-ylmethyl)imidazo[1,2-b][1,2,4]triazin-2-yl]benzamide]
O=C(NC1(CO)CCCC1)c1ccc(-c2cnc3ncc(Cc4ccc5ncccc5c4)n3n2)cc1F [Example 158, 2-Fluoro-N-[1-(hydroxymethyl)cyclopentyl]-4-[7-(quinolin-6-ylmethyl)imidazo[1,2-b][1,2,4]triazin-2-yl]benzamide]
CC(c1ccc2ncccc2c1)c1cnc2ncc(-c3ccc(C(=O)N[C@H]4CC[C@H](O)CC4)c(F)c3)nn12 (stereo partly drawn) [Example 159, 2-Fluoro-N-(trans-4-hydroxycyclohexyl)-4-[7-(1-quinolin-6-ylethyl)imidazo[1,2-b][1,2,4]triazin-2-yl]benzamide]
CNC(=O)c1ccc(-c2cnc3ncc(C(C)c4ccc5ncccc5c4)n3n2)cc1F (stereo not shown) [Example 160, 2-Fluoro-N-methyl-4-[7-(1-quinolin-6-ylethyl)imidazo[1,2-b][1,2,4]triazin-2-yl]benzamide]
CC(c1ccc2ncccc2c1)c1cnc2ncc(-c3ccc(C(=O)NC4CC4)c(F)c3)nn12 (stereo not shown) [Example 161, N-Cyclopropyl-2-fluoro-4-[7-(1-quinolin-6-ylethyl)imidazo[1,2-b][1,2,4]triazin-2-yl]benzamide]
COCC1(NC(=O)c2ccc(-c3cnc4ncc(C(C)c5ccc6ncccc6c5)n4n3)cc2F)CC1 (stereo not shown) [Example 162, 2-Fluoro-N-[1-(methoxymethyl)cyclopropyl]-4-[7-(1-quinolin-6-ylethyl)imidazo[1,2-b][1,2,4]triazin-2-yl]benzamide]
COCC(C)NC(=O)c1ccc(-c2cnc3ncc(C4(c5ccc6ncccc6c5)CC4)n3c2)cc1F (stereo not shown) [Example 163, 2-Fluoro-N-(2-methoxy-1-methylethyl)-4-[3-(1-quinolin-6-ylcyclopropyl)imidazo[1,2-a]pyrimidin-6-yl]benzamide]
O=C(c1ccc(-c2cnc3ncc(C4(c5ccc6ncccc6c5)CC4)n3c2)cc1F)N1CC[C@H](F)C1 [Example 164, 6-{1-[6-(3-Fluoro-4-[(3S)-3-fluoropyrrolidin-1-yl]carbonylphenyl)imidazo[1,2-a]pyrimidin-3-yl]cyclopropyl}quinoline]
O=C(NCc1ccccn1)c1ccc(-c2cnc3ncc(C4(c5ccc6ncccc6c5)CC4)n3c2)cc1F [Example 165, 2-Fluoro-N-(pyridin-2-ylmethyl)-4-[3-(1-quinolin-6-ylcyclopropyl)imidazo[1,2-a]pyrimidin-6-yl]benzamide]
O=C(NC1(c2ccccn2)CC1)c1ccc(-c2cnc3ncc(C4(c5ccc6ncccc6c5)CC4)n3c2)cc1F [Example 166, 2-Fluoro-N-(1-pyridin-2-ylcyclopropyl)-4-[3-(1-quinolin-6-ylcyclopropyl)imidazo[1,2-a]pyrimidin-6-yl]benzamide]
O=C(NC1CCN(c2ccccn2)C1)c1ccc(-c2cnc3ncc(C4(c5ccc6ncccc6c5)CC4)n3c2)cc1F (stereo not shown) [Example 167, 2-Fluoro-N-(1-pyridin-2-ylpyrrolidin-3-yl)-4-[3-(1-quinolin-6-ylcyclopropyl)imidazo[1,2-a]pyrimidin-6-yl]benzamide]
O=C(N[C@@H]1CCOC1)c1ccc(-c2cnc3ncc(C4(c5ccc6ncccc6c5)CC4)n3c2)cc1F [Example 168, 2-Fluoro-4-[3-(1-quinolin-6-ylcyclopropyl)imidazo[1,2-a]pyrimidin-6-yl]-N-[(3R)-tetrahydrofuran-3-yl]benzamide]
O=C(NCC1CCCO1)c1ccc(-c2cnc3ncc(C4(c5ccc6ncccc6c5)CC4)n3c2)cc1F (stereo not shown) [Example 169, 2-Fluoro-4-[3-(1-quinolin-6-ylcyclopropyl)imidazo[1,2-a]pyrimidin-6-yl]-N-(tetrahydrofuran-2-ylmethyl)benzamide]
O=C(NC1CC1)c1ccc(-c2cnc3ncc(C4(c5ccc6ncccc6c5)CC4)n3c2)cc1F [Example 170, N-Cyclopropyl-2-fluoro-4-[3-(1-quinolin-6-ylcyclopropyl)imidazo[1,2-a]pyrimidin-6-yl]benzamide]
COC[C@@H](NC(=O)c1ccc(-c2cnc3ncc(C4(c5ccc6ncccc6c5)CC4)n3c2)cc1F)C(C)C [Example 171, 2-Fluoro-N-[(1S)-1-(methoxymethyl)-2-methylpropyl]-4-[3-(1-quinolin-6-ylcyclopropyl)imidazo[1,2-a]pyrimidin-6-yl]benzamide]
NC(=O)c1ccc(-c2cnc3ncc(C4(c5ccc6ncccc6c5)CC4)n3c2)cc1F [Example 172, 2-Fluoro-4-[3-(1-quinolin-6-ylcyclopropyl)imidazo[1,2-a]pyrimidin-6-yl]benzamide]
CN(CCN(C)c1ccccn1)C(=O)c1ccc(-c2cnc3ncc(C4(c5ccc6ncccc6c5)CC4)n3c2)cc1F [Example 173, 2-Fluoro-N-methyl-N-2-[methyl(pyridin-2-yl)amino]ethyl-4-[3-(1-quinolin-6-ylcyclopropyl)imidazo[1,2-a]pyrimidin-6-yl]benzamide]
CNC(=O)c1ccc(-c2cnc3ncc(C4(c5ccc6ncccc6c5)CC4)n3c2)cc1Cl [Example 174, 2-Chloro-N-methyl-4-[3-(1-quinolin-6-ylcyclopropyl)imidazo[1,2-a]pyrimidin-6-yl]benzamide]
O=C(NC1CC1)c1ccc(-c2cnc3ncc(C4(c5ccc6ncccc6c5)CC4)n3c2)cc1Cl [Example 175, 2-Chloro-N-cyclopropyl-4-[3-(1-quinolin-6-ylcyclopropyl)imidazo[1,2-a]pyrimidin-6-yl]benzamide]
O=C(NC1CCOC1)c1ccc(-c2cnc3ncc(C4(c5ccc6ncccc6c5)CC4)n3c2)cc1Cl (stereo not shown) [Example 176, 2-Chloro-4-[3-(1-quinolin-6-ylcyclopropyl)imidazo[1,2-a]pyrimidin-6-yl]-N-(tetrahydrofuran-3-yl)benzamide]
CC(NC(=O)c1ccc(-c2cnc3ncc(C4(c5ccc6ncccc6c5)CC4)n3c2)cc1Cl)c1ccccn1 (stereo not shown) [Example 177, 2-Chloro-N-(1-pyridin-2-ylethyl)-4-[3-(1-quinolin-6-ylcyclopropyl)imidazo[1,2-a]pyrimidin-6-yl]benzamide]
O=C(c1ccc(-c2cnc3ncc(C4(c5ccc6ncccc6c5)CC4)n3c2)cc1Cl)N1CCC1 [Example 178, 6-(1-{6-[4-(Azetidin-1-ylcarbonyl)-3-chlorophenyl]imidazo[1,2-a]pyrimidin-3-yl}cyclopropyl)quinoline]
O=C(NC1CCN(c2ccccn2)C1)c1ccc(-c2cnc3ncc(C4(c5ccc6ncccc6c5)CC4)n3c2)cc1Cl (stereo not shown) [Example 179, 2-Chloro-N-(1-pyridin-2-ylpyrrolidin-3-yl)-4-[3-(1-quinolin-6-ylcyclopropyl)imidazo[1,2-a]pyrimidin-6-yl]benzamide]
CC(COc1ccccn1)NC(=O)c1ccc(-c2cnc3ncc(C4(c5ccc6ncccc6c5)CC4)n3c2)cc1Cl (stereo not shown) [Example 180, 2-Chloro-N-[1-methyl-2-(pyridin-2-yloxy)ethyl]-4-[3-(1-quinolin-6-ylcyclopropyl)imidazo[1,2-a]pyrimidin-6-yl]benzamide]
CC(C)[C@H](NC(=O)c1ccc(-c2cnc3ncc(C4(c5ccc6ncccc6c5)CC4)n3c2)cc1Cl)C(=O)N(C)C [Example 181, 2-Chloro-N-(1S)-1-[(dimethylamino)carbonyl]-2-methylpropyl-4-[3-(1-quinolin-6-ylcyclopropyl)imidazo[1,2-a]pyrimidin-6-yl]benzamide]
O=C1c2ccc(-c3cnc4ncc(C5(c6ccc7ncccc7c6)CC5)n4c3)cc2CN1C1CC1 [Example 182, 2-Cyclopropyl-5-[3-(1-quinolin-6-ylcyclopropyl)imidazo[1,2-a]pyrimidin-6-yl]isoindolin-1-one]
CCN1Cc2cc(-c3cnc4ncc(C5(c6ccc7ncccc7c6)CC5)n4c3)ccc2C1=O [Example 183, 2-Ethyl-5-[3-(1-quinolin-6-ylcyclopropyl)imidazo[1,2-a]pyrimidin-6-yl]isoindolin-1-one]
COCC(C)N1Cc2cc(-c3cnc4ncc(C5(c6ccc7ncccc7c6)CC5)n4c3)ccc2C1=O (stereo not shown) [Example 184, 2-(2-Methoxy-1-methylethyl)-5-[3-(1-quinolin-6-ylcyclopropyl)imidazo[1,2-a]pyrimidin-6-yl]isoindolin-1-one]
O=C1c2ccc(-c3cnc4ncc(C5(c6ccc7ncccc7c6)CC5)n4c3)cc2CN1Cc1ccccn1 [Example 185, 2-(Pyridin-2-ylmethyl)-5-[3-(1-quinolin-6-ylcyclopropyl)imidazo[1,2-a]pyrimidin-6-yl]isoindolin-1-one]
CN1Cc2cc(-c3cnc4ncc(C5(c6ccc7ncccc7c6)CC5)n4c3)ccc2C1=O [Example 186, 2-Methyl-5-[3-(1-quinolin-6-ylcyclopropyl)imidazo[1,2-a]pyrimidin-6-yl]isoindolin-1-one]
CCNC(=O)C1(c2ccc(-c3cnc4ncc(C5(c6ccc7ncccc7c6)CC5)n4c3)cc2)CC1 [Example 187, N-Ethyl-1-{4-[3-(1-quinolin-6-ylcyclopropyl)imidazo[1,2-a]pyrimidin-6-yl]phenyl}cyclopropanecarboxamide]

From patent US9944645B2, “Imidazotriazines and imidazopyrimidines as kinase inhibitors” (Incyte Holdings Corporation, priority 2006, dated 2018)
